The values below come from US20250171459A1, “2-METHYL-4',5'-DIHYDROSPIRO[PIPERIDINE-4,7'-THIENO[2,3-C]PYRAN] DERIVATIVES AS INHIBITORS OF APOL1 AND METHODS OF USING SAME” (Vertex Pharmaceuticals Incorporated, priority 2022, published 2025).

Each structure is given as a SMILES string.

In this experiment the target is T1, APOL1 (Homo sapiens, UniProt O14791).
T1 sequence (O14791 1-398 S342G/I384M): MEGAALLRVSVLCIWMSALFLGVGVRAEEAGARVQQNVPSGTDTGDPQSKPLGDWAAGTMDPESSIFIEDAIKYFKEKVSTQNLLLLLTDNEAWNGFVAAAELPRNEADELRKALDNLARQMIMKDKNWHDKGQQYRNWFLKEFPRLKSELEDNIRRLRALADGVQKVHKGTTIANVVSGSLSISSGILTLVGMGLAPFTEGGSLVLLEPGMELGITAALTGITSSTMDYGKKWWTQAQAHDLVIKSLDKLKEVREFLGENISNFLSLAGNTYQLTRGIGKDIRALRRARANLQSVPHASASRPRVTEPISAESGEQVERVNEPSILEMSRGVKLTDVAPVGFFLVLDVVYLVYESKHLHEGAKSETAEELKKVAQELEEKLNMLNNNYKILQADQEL
Description: MultiTox-Fluor Multiplex Cytotoxicity Assay in tet-inducible APOL1 T-REx-HEK293 cells (cell rescue, ratio of dead to live cells). To be noted: tet-inducible transgenic APOL1 T-REx-HEK293 cell lines, 50 ng/mL tet, 24 hours; read-out: IP50 (i.e., IC50 for cell proliferation). In kind it is cell-based. The gist of the method: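 T-REx-HEK293 cells with tet-inducible APOL1 were treated with compound (10 μM top, 10-point 3-fold dilution, duplicate) plus 50 ng/mL tetracycline for 24 h at 37° C, in DMEM with 2% tet-free FBS. MultiTox-Fluor protease signals gave a dead/live ratio, normalized to no tet (100% viability) and tet alone (0%).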
For the molecule `CCc1cc2c(s1)CCO[C@@]21CCN(Cc2cnc(N[C@H]3CCNC3=O)nc2)[C@@H](C)C1` [Compound 207], the IC50 was under 100 nM.

Turning to `CCc1cc2c(s1)CCO[C@@]21CCN(Cc2cnc(OCC(C)(C)N)nc2)[C@@H](C)C1` [Compound 208], the IC50 is under 100 nM.

For the molecule `CCc1cc2c(s1)CCO[C@@]21CCN(Cc2cnc(N[C@H]3CCCC[C@@H]3O)nc2)[C@@H](C)C1` [Compound 209], the IC50 was under 100 nM.

`CCc1cc2c(s1)CCO[C@@]21CCN(Cc2cnc(NC34CCC(CO)(C3)C4)nc2)[C@@H](C)C1` [Compound 210]: the IC50 was under 100 nM.

Regarding `CCc1cc2c(s1)CCO[C@@]21CCN(Cc2ccc(N[C@@H](C)C(C)(C)O)nc2)[C@@H](C)C1` [Compound 211], the IC50 was under 100 nM.

For `CCc1cc2c(s1)CCO[C@@]21CCN(Cc2ccc(N[C@H]3COC[C@@H]3O)nc2)[C@@H](C)C1` [Compound 212], the IC50 is under 100 nM.

In the case of `CCc1cc2c(s1)CCO[C@@]21CCN(Cc2cnc(N[C@@H](C)C(C)(C)O)nc2)[C@@H](C)C1` [Compound 213], the IC50 was under 100 nM.

As for `CCc1cc2c(s1)CCO[C@@]21CCN(Cc2ccc(N[C@@H](CO)[C@@H](C)O)nc2)[C@@H](C)C1` [Compound 214], the IC50 is under 100 nM.

Turning to `CCc1cc2c(s1)CCO[C@@]21CCN(Cc2cnc(OCC3(N)CCOC3)nc2)[C@@H](C)C1` (some centres unmarked) [Compound 215], the IC50 is under 100 nM.

`CCc1cc2c(s1)CCOC21CCN(Cc2ccc(NC3CN(S(C)(=O)=O)C3)nc2)[C@@H](C)C1` (some centres unmarked) [Compound 216]: the IC50 was under 100 nM.

Consider `CCc1cc2c(s1)CCO[C@@]21CCN(Cc2cnc(NCC(O)CO)nc2)[C@@H](C)C1` (some centres unmarked) [Compound 217], for which the IC50 was under 100 nM.

Regarding `CCc1cc2c(s1)CCO[C@@]21CCN(Cc2cnc(NC3CNC(=O)C3)nc2)[C@@H](C)C1` (some centres unmarked) [Compound 218], the IC50 is under 100 nM.

`CCc1cc2c(s1)CCO[C@@]21CCN(Cc2cnc(N[C@H]3CCC[C@H]3CO)nc2)[C@@H](C)C1` [Compound 219]: the IC50 is under 100 nM.

Consider `CCc1cc2c(s1)CCO[C@@]21CCN(Cc2cnc(N[C@@H]3C(=O)NC[C@H]3O)nc2)[C@@H](C)C1` [Compound 220], for which the IC50 is under 100 nM.

Regarding `CCc1cc2c(s1)CCO[C@@]21CCN(Cc2cnc(NCCN3CCNC3=O)nc2)[C@@H](C)C1` [Compound 221], the IC50 is under 100 nM.

On to `CCc1cc2c(s1)CCO[C@@]21CCN(Cc2cnc(NC(CO)CO)nc2)[C@@H](C)C1` [Compound 222], for which the IC50 is under 100 nM.

Take `CCc1cc2c(s1)CCO[C@@]21CCN(Cc2cnc(N[C@@H]3CCCC[C@H]3O)nc2)[C@@H](C)C1` [Compound 223]: the IC50 was under 100 nM.

Take `CCc1cc2c(s1)CCO[C@@]21CCN(Cc2cnc(NC(C)(CC)CO)nc2)[C@@H](C)C1` (some centres unmarked) [Compound 224]: the IC50 is under 100 nM.

In the case of `CCc1cc2c(s1)CCO[C@@]21CCN(Cc2cnc(N[C@@H](C)C(=O)NC)nc2)[C@@H](C)C1` [Compound 225], the IC50 was under 100 nM.

Consider `CCc1cc2c(s1)CCO[C@@]21CCN(Cc2cnc(N[C@@H](CO)[C@H](C)O)nc2)[C@@H](C)C1` [Compound 226], for which the IC50 is under 100 nM.

On to `CCc1cc2c(s1)CCO[C@@]21CCN(Cc2cnc(OCC3(N)CCCCC3)nc2)[C@@H](C)C1` [Compound 227], for which the IC50 is under 100 nM.

As for `CCc1cc2c(s1)CCO[C@@]21CCN(Cc2ccc(NC(C)(C)CO)nc2)[C@@H](C)C1` [Compound 228], the IC50 was under 100 nM.

On to `CCc1cc2c(s1)CCO[C@@]21CCN(Cc2cnc(N[C@@H](CO)[C@@H](C)O)nc2)[C@@H](C)C1` [Compound 229], for which the IC50 is under 100 nM.

With `CCc1cc2c(s1)CCO[C@@]21CCN(Cc2cnc(NCCN(CCO)CCO)nc2)[C@@H](C)C1` [Compound 230], the IC50 was under 100 nM.

Regarding `CCc1cc2c(s1)CCO[C@@]21CCN(Cc2cnc(NCC(O)C(F)(F)F)nc2)[C@@H](C)C1` (some centres unmarked) [Compound 231], the IC50 lay in the range of 100 to 500 nM.

For `CCc1cc2c(s1)CCO[C@@]21CCN(C2COCC2O)[C@@H](C)C1` (stereo partly drawn) [Compound 232, 4-[(2′S,4R)-2-ethyl-2′-methyl-spiro[6,7-dihydrothieno[3,2-c]pyran-4,4′-piperidine]-1′-yl]tetrahydrofuran-3-ol], the IC50 was under 100 nM.

As to `CCc1cc2c(s1)CCO[C@@]21CCN(C2COCC2O)[C@@H](C)C1` (stereo partly drawn) [Compound 233, 4-[(2′S,4R)-2-ethyl-2′-methyl-spiro[6,7-dihydrothieno[3,2-c]pyran-4,4′-piperidine]-1′-yl]tetrahydrofuran-3-ol], the IC50 was in the range of 100 to 500 nM.

Take `CCc1cc2c(s1)CCO[C@@]21CCN(C2CCCC2O)[C@@H](C)C1` (some centres unmarked) [Compound 234]: the IC50 was under 100 nM.

Regarding `CCc1cc2c(s1)CCO[C@@]21CCN(CC2(O)CCOCC2)[C@@H](C)C1` [Compound 235], the IC50 was in the range of 100 to 500 nM.

Regarding `CCc1cc2c(s1)CCO[C@@]21CCN(CC(C)(C)O)[C@@H](C)C1` [Compound 236], the IC50 is 100 to 500 nM.

`CCc1cc2c(s1)CCO[C@@]21CCN(C[C@@H](C)O)[C@@H](C)C1` [Compound 237]: the IC50 lay within 100 to 500 nM.

Consider `CCc1cc2c(s1)CCO[C@@]21CCN(CC(O)CC(F)(F)F)[C@@H](C)C1` (some centres unmarked) [Compound 238], for which the IC50 lay within 100 to 500 nM.

As for `CCc1cc2c(s1)CCO[C@@]21CCN(CCO)[C@@H](C)C1` [Compound 239], the IC50 lay within 100 to 500 nM.

On to `CCc1cc2c(s1)CCO[C@@]21CCN(CC(O)C(N)=O)[C@@H](C)C1` (some centres unmarked) [Compound 240], for which the IC50 was in the range of 100 to 500 nM.

Turning to `CCc1cc2c(s1)CCO[C@@]21CCN(CC(O)C(F)(F)F)[C@@H](C)C1` (some centres unmarked) [Compound 241], the IC50 was in the range of 100 to 500 nM.

Turning to `CCc1cc2c(s1)CCO[C@@]21CCN(CC(C)O)[C@@H](C)C1` (some centres unmarked) [Compound 242], the IC50 was in the range of 100 to 500 nM.

Turning to `CCc1cc2c(s1)CCO[C@@]21CCN(CC(O)C(F)(F)F)[C@@H](C)C1` (some centres unmarked) [Compound 243], the IC50 was in the range of 100 to 500 nM.

With `CCc1cc2c(s1)CCO[C@@]21CCN(CC(O)CC(F)(F)F)[C@@H](C)C1` (some centres unmarked) [Compound 244], the IC50 lay in the range of 100 to 500 nM.

`CCc1cc2c(s1)CCO[C@@]21CCN(C2CCCC2O)[C@@H](C)C1` (some centres unmarked) [Compound 245]: the IC50 was in the range of 100 to 500 nM.

As for `CCc1cc2c(s1)CCO[C@@]21CCN(C[C@H](O)c2ccccc2)[C@@H](C)C1` [Compound 246], the IC50 was under 100 nM.

With `CCc1cc2c(s1)CCO[C@@]21CCN(CC(O)c2ccc(F)cc2)[C@@H](C)C1` (some centres unmarked) [Compound 249], the IC50 was under 100 nM.

With `CCc1cc2c(s1)CCO[C@@]21CCN(CC(O)c2ccc(F)c(F)c2)[C@@H](C)C1` (some centres unmarked) [Compound 253], the IC50 fell in the range of 100 to 500 nM.

In the case of `CCc1cc2c(s1)CCO[C@@]21CCN(CC(O)c2ccccc2Cl)[C@@H](C)C1` (some centres unmarked) [Compound 254], the IC50 was under 100 nM.

For `CCc1cc2c(s1)CCO[C@@]21CCN(CC2(O)CCS(=O)(=O)CC2)[C@@H](C)C1` [Compound 257], the IC50 was in the range of 100 to 500 nM.

For `CCc1cc2c(s1)CCO[C@@]21CCN(Cc2cnn(CCS(=O)(=O)NC)c2)[C@@H](C)C1` [Compound 264, 2-[4-[[(2′S,4R)-2-ethyl-2′-methyl-spiro[6,7-dihydrothieno[3,2-c]pyran-4,4′-piperidine]-1′-yl]methyl]pyrazol-1-yl]-N-methyl-ethanesulfonamide], the IC50 is under 100 nM.

As to `CCc1cc2c(s1)CCO[C@@]21CCN(Cc2cn[nH]c2)[C@@H](C)C1` [Compound 265], the IC50 is under 100 nM.

As to `CCc1cc2c(s1)CCO[C@@]21CCN(Cc2cnn(CC(C)(CO)CO)c2)[C@@H](C)C1` [Compound 266], the IC50 was under 100 nM.

Consider `CCc1cc2c(s1)CCO[C@@]21CCN(Cc2cnn(C)c2)[C@@H](C)C1` [Compound 267], for which the IC50 is under 100 nM.

On to `CCc1cc2c(s1)CCO[C@@]21CCN(Cc2cnn(CCS(C)(=O)=O)c2)[C@@H](C)C1` [Compound 268], for which the IC50 is under 100 nM.

With `CCc1cc2c(s1)CCO[C@@]21CCN(Cc2cnn(CCO)c2)[C@@H](C)C1` [Compound 269], the IC50 was under 100 nM.

Regarding `CCc1cc2c(s1)CCO[C@]21CCN(Cc2cnn(C)c2)[C@H](C)C1` [Compound 270], the IC50 lay in the range of 100 to 500 nM.

Consider `CCc1cc2c(s1)CCO[C@]21CCN(Cc2cnn(CCS(C)(=O)=O)c2)[C@@H](C)C1` [Compound 271], for which the IC50 was under 100 nM.

For the molecule `CCc1cc2c(s1)CCO[C@@]21CCN(Cc2cnn(CCS(C)(=O)=O)c2)[C@H](C)C1` [Compound 272], the IC50 is 100 to 500 nM.

For `CCc1cc2c(s1)CCO[C@]21CCN(Cc2cnn(CCS(C)(=O)=O)c2)[C@H](C)C1` [Compound 273], the IC50 lay within 100 to 500 nM.

Take `CCc1cc2c(s1)CCO[C@@]21CCN(Cc2ccc(NS(C)(=O)=O)cc2)[C@@H](C)C1` [Compound 274]: the IC50 was under 100 nM.

On to `CCc1cc2c(s1)CCO[C@@]21CCN(CCC(F)(F)F)[C@@H](C)C1` [Compound 275], for which the IC50 fell in the range of 500 to 1000 nM.

Take `CCc1cc2c(s1)CCO[C@@]21CCN(CC(C)C)[C@@H](C)C1` [Compound 276]: the IC50 lay within 500 to 1000 nM.

On to `CCc1cc2c(s1)CCO[C@@]21CCN(C)[C@@H](C)C1` [Compound 277], for which the IC50 fell in the range of 500 to 1000 nM.

`CCc1cc2c(s1)CCO[C@@]21CCN(CCOC)[C@@H](C)C1` [Compound 278, (2′S,4R)-2-ethyl-1′-(2-methoxyethyl)-2′-methyl-spiro[6,7-dihydrothieno[3,2-c]pyran-4,4′-piperidine]]: the IC50 fell in the range of 100 to 500 nM.
